Measurements as given in patent publication US20160038435A1 (Teva Pharmaceutical Industries Ltd., priority 2013, published 2016).
Converted amounts (≈) assume the structure as drawn. Structures can show the parent of a compound that is named as a salt. Each block holds one molecule with its values, some of them ahead of it.

Columns and labels:
[1] = tested on: genes related to antigen presentation; details: mainly via the NFkB pathway; cited from earlier work
[2] = Concentration of saturated donor solutions applied onto the skin; format: physicochemical
[3] = Saturation solubilities in solvents; format: physicochemical
Experimental: Saturation solubilities were measured in solvents typically used for incorporating of the drug into the pressure sensitive adhesives (PSA). Additional solubilities were measured in water, Phosphate buffered saline (PBS) Buffer (acceptor medium for skin permeation) and three different donor medium. All solubilities were measured at room temperature.

Compound: CCN(C(=O)c1c(O)c2c(Cl)cccc2n(C)c1=O)c1ccccc1 [laquinimod]
effect on genes related to antigen presentation and inflammatory pathways [1]: induced suppression of genes related to antigen presentation and corresponding inflammatory pathways

c of saturated solution ([2]; EtOH/Dodecanol 95/5, saturated solution containing solid API): 3.49 mg/mL | c of saturated solution ([2]; EtOH/Oleic acid 85/15, saturated solution containing solid API): 3.93 mg/mL | c of saturated solution ([2]; Propylene glycol (PG)/water 8/2, saturated solution containing solid API): 1.22 mg/mL | Solubility ([3]; 2-Propanol, room temperature): 1662 µg/mL (≈ 4.66 mM) | Solubility ([3]; Acetone, room temperature): 4884 µg/mL (≈ 13.7 mM) | Solubility ([3]; Ethanol, room temperature): 4098 µg/mL (≈ 11.5 mM) | Solubility ([3]; Ethanol/Dodecanol (95:5), room temperature): 4209 µg/mL (≈ 11.8 mM) | Solubility ([3]; Ethanol/Oleic acid (85:15), room temperature): 4785 µg/mL (≈ 13.4 mM) | Solubility ([3]; Ethylacetate, room temperature): 3909 µg/mL (≈ 11 mM) | Solubility ([3]; PBS pH 7.4, room temperature): 1296 µg/mL (≈ 3.63 mM) | Solubility ([3]; Propylenglycol/water (80:20), room temperature): 1281 µg/mL (≈ 3.59 mM) | Solubility ([3]; Water, room temperature): 24 µg/mL (≈ 0.0673 mM) | Solubility ([3]; n-Heptane, room temperature): 0.6 µg/mL (≈ 0.00168 mM)
Compound: CCN(C(=O)c1c(O)c2c(Cl)cccc2n(C)c1=O)c1ccccc1 [Laquinimod free acid]

c of saturated solution ([2]; EtOH/Dodecanol 95/5, saturated solution containing solid API, listed as Laquinimod-Na): 1.17 mg/mL | c of saturated solution ([2]; EtOH/Oleic acid 85/15, saturated solution containing solid API, listed as Laquinimod-Na): 4.30 mg/mL | c of saturated solution ([2]; Propylene glycol (PG)/water 8/2, saturated solution containing solid API, listed as Laquinimod-Na): 10.00 mg/mL
Compound: CCN(C(=O)c1c(O)c2c(Cl)cccc2n(C)c1=O)c1ccccc1 [Laquinimod Sodium Salt, Laquinimod sodium]
